Reference: patent EP0644194A1, “PYRIDOTHIAZINEACETIC ACID COMPOUND, PROCESS FOR PRODUCING THE SAME, AND USE THEREOF” (THE GREEN CROSS CORPORATION, priority 1993, dated 1994)
pIC50: −log10 of the molar value. Where two headings read alike, the source gives them in different places. Marks after values point to notes of the source that are not given here.

Tests used:
aldose reductase = target: T1, aldose reductase (Sus scrofa, UniProt P80276); experiment: Aldose reductase inhibitory action (method of S. Hayman et al., absorbance change at 340 nm); type: biochemical, swine
T1 construct: swine lenses freeze-stored at -80°C were homogenized with distilled water; from tissue; host or cells: swine lens
Procedure: That is, swine lenses freeze-stored at -80°C were homogenized with distilled water and cetrifuged at 10,000 G for 15 minutes. The supernatant was prepared into a 40% ammonium sulfate solution and subjected to cetrifugation at 10,000 G for 10 minutes.
The activity of aldose reductase was determined by the above-mentioned method of S. Hayman et al. That is, the above-mentioned enzyme solution (25 µl) and a drug solution (25 µl) dissolved in 1% DMSO at various concentrations were added to a 40 mM phosphate buffer (200 µl, pH 6.2) containing final concentrations of 0.4 M lithium sulfate, 0.1 mM NADPH (reduced type nicotinamide adenine dinucleotide phosphate) and 3 mM dl-glyceraldehyde as a substrate. […] The test drug number indicates the example number to be mentioned later. […]

[1] = tested on: sorbitol accumulation in tissues; experiment: Inhibitory action on sorbitol accumulation in tissues of rats with experimental diabetes (streptozotocin); type: in vivo, Sprague-Dawley rats; conditions: percent of control (100%), oral at 4, 8 and 24 hours after streptozotocin, Example 9 at 10 mg/kg, EPALRESTAT at 30 mg/kg, 3 hours after final administration; for Sorbitol accumulation, nerve: sciatic nerve
Procedure: Sprague-Dawley rats (male, 6 weeks old, 5-6 per group) were fasted for 18 hours and injected with streptozotocin (SIGMA, 60 mg/kg) via the tail vein under etherization to prepare rats with diabetes.
The test drugs were orally administered at 4, 8 and 24 hours after the injection of streptozotocin. The compound of Example 9 was administered at 10 mg/kg and EPALRESTAT was administered at 30 mg/kg as a 0.5% carboxymethylcellulose suspension, respectively. During the administrations, the rats were raised under free access to feed and water and the sorbitol content in the tissues (erythrocytes, sciatic nerve, lens) was determined 3 hours after the final administration, according to the enzyme method of H.Y. Bergmeyer et al. [Methods of Enzymatic Analysis, vol. 3, 1323-1330 (1974)] with the use of SDH (sorbitol dehydrogenase) and NAD (β-nicotinamide adenine dinucleotide). The results (sorbitol accumulation) are expressed in percent (%) relative to the value of a control group administered with a 0.5% carboxymethylcellulose solution (solvent) instead of the drug, which was taken as 100%.

ICR mice = experiment: Acute toxicity of a single oral dose; type: in vivo; conditions: 300 mg/kg single oral dose, male ICR mice, observation for 14 days
Procedure: Normal ICR mice (male, 7 weeks old, 5 per group) were fasted for 18 hours and the compound (300 mg/kg) of Example 9 was orally administered as a 0.5% carboxymethylcellulose suspension. To the control group, a 0.5% carboxymethylcellulose solution alone was orally administered and observation was continued for 14 days thereafter, during which period the mice were allowed to take feed and water freely.

[2] = swine lens enzyme, 3 mM dl-glyceraldehyde as substrate, 0.1 mM NADPH, pH 6.2, 25°C, read-out: IC₅₀

Row | SMILES | pIC50 (aldose reductase; [2]) | pIC50 (aldose reductase) | Sorbitol accumulation, erythrocytes [1] | Sorbitol accumulation, lens [1] | Sorbitol accumulation, nerve [1] | death cases (ICR mice) | body weight transition (ICR mice; compared with control group)
1 | O=C(O)CC1Sc2ncccc2N(Cc2nc3c(Cl)c(Cl)ccc3s2)C1=O (stereo not shown) [Compound of Ex.12, 2-[4-(4,5-Dichlorobenzothiazol-2-yl)methyl-3-oxo-3,4-dihydro-2H-pyrido[2,3-b][1,4]thiazin-2-yl]acetic acid] | 7.92 | – | – | – | – | – | –
2 | O=C(O)CC1Sc2ncccc2N(Cc2nc3c(F)c(F)cc(F)c3s2)C1=O (stereo not shown) [Compound of Ex. 9, 2-[4-(4,5,7-Trifluorobenzothiazol-2-yl)methyl-3-oxo-3,4-dihydro-2H-pyrido[2,3-b][1,4]thiazin-2-yl]acetic acid] | 7.96 | – | 59.0* % | 66.2* % | 3.3* % | no death case | showed transition in the same manner as in the control group
3 | CC(/C=C1\SC(=S)N(CC(=O)O)C1=O)=C\c1ccccc1 [EPALRESTAT, reference compound] | – | 7.68 | 66.5% | 89.1% | 99.9% | – | –

Further lines, with some results ahead:

Row | pIC50 (aldose reductase; [2]) | pIC50 (aldose reductase) | SMILES | Sorbitol accumulation, erythrocytes [1] | Sorbitol accumulation, lens [1] | Sorbitol accumulation, nerve [1] | death cases (ICR mice) | body weight transition (ICR mice; compared with control group)
4 | 7.92 | – | O=C(O)CC1Sc2ncccc2N(Cc2nc3c(F)c(F)ccc3s2)C1=O (stereo not shown) [Compound of Ex.10, 2-[4-(4,5-Difluorobenzothiazol-2-yl)methyl-3-oxo-3,4-dihydro-2H-pyrido[2,3-b][1,4]thiazin-2-yl]acetic acid] | – | – | – | – | –
5 | 7.92 | – | O=C(O)CC1Sc2cnccc2N(Cc2nc3c(F)c(F)cc(F)c3s2)C1=O (stereo not shown) [Compound of Ex.14, 2-[4-(4,5,7-Trifluorobenzothiazol-2-yl)methyl-3-oxo-3,4-dihydro-2H-pyrido[3,4-b][1,4]thiazin-2-yl]acetic acid] | – | – | – | – | –
